Source: BindingDB's records for patent US20240336562 (Hangzhou Innogate Pharma, 2024)

Target: NACHT, LRR and PYD domains-containing protein 3 (Homo sapiens, UniProt Q96P20)
Assay: Inhibitory Activity of NLRP3
Procedure: ELISA plate, and incubated at 4° C. overnight. Discard the liquid in the ELISA plate and wash it 4 times with eluent. Add 300 μL/well reagent diluent and incubate the ELISA plate at room temperature for 1.5 hours. Wash the plate with eluent for four times. Then 100 μL/well samples were added to ELISA plate coated with IL1β and incubated at room temperature for 2 h. Wash the plate with eluent for four times. Each well was added with 100 μL detection antibody and incubated at 37° C. for 2 h. Wash the plate with eluent for four times. Add 100 μL of HRP labeled secondary antibody to each well. Incubate at 37° C. for 1 hour. Wash the plate with eluent for four times. Add 100 μL of A+B substrate per well. Incubate at 37° C. for 30 minutes. Add 100 μL STOP solution per well. Gently shake the plate for a few seconds. Read the absorption value at 450 nm on the EnVision multifunction reader and calculate the Inhibitory rate according to the following formula: Inhibition %=(Ave_H-Sample)/(Ave_H-Ave_L). Among them, Ave_H represents the average value of DMSO well, Sample represents the average value of compound well, and Ave_L represents the average value of 10 μM positive control well. The log value of concentration was taken as the X-axis and the percentage inhibitory rate as the Y-axis. […]

NACHT, LRR and PYD domains-containing protein 3, sequence (Q96P20 whole entry, the tested form may be a part): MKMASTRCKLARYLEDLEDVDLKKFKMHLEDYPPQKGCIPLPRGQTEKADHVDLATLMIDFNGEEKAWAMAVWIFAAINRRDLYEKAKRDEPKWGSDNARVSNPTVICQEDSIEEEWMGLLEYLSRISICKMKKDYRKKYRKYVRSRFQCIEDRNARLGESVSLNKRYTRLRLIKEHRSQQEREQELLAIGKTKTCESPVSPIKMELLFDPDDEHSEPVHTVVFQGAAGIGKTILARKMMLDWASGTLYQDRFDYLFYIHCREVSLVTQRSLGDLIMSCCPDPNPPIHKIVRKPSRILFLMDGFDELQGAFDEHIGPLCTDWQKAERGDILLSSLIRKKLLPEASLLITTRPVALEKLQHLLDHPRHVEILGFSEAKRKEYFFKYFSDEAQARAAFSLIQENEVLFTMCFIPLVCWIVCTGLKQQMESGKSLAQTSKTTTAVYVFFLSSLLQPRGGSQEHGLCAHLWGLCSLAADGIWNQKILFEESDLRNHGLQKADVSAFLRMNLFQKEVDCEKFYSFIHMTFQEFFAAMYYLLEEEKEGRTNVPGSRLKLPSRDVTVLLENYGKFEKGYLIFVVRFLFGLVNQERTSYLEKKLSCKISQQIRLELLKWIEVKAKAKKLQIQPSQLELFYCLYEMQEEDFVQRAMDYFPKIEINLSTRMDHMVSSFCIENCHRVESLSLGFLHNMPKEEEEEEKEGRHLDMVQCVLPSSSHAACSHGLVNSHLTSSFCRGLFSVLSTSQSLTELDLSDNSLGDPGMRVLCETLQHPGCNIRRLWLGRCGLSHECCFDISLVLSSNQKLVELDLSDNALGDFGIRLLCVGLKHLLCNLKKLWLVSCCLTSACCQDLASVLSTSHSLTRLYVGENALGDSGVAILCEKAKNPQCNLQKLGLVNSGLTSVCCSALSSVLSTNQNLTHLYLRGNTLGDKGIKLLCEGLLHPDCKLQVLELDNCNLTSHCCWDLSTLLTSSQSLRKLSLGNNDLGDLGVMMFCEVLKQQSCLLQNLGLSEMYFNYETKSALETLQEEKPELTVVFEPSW

For `COc1cc(-c2c(C)cc3c(c2NC(=O)NS(=O)(=O)c2ccn(C4CC(=C(F)F)C4)n2)CCC3)ccn1` (stereo unspecified) [US20240336562, Compound 22], the IC50 was < 0.025 µM.
